Consider nine compounds from paper PMC11752888 (Frontiers in Microbiology, 2025).

A word on the Kd: it is a measure of binding affinity in units of concentration.

One series addresses T1, JTY_0672 (Mycobacterium tuberculosis, UniProt P96941).
T1 construct: gene Rv0653c

Series [1] relates to JTY_0672 (TetR family transcriptional regulator) (Mycobacterium bovis BCG Tokyo 172). In words: BLI. (BLI is a label-free optical method that tracks binding on a fibre tip over time.)

T1 sequence (P96941 entry or part of it): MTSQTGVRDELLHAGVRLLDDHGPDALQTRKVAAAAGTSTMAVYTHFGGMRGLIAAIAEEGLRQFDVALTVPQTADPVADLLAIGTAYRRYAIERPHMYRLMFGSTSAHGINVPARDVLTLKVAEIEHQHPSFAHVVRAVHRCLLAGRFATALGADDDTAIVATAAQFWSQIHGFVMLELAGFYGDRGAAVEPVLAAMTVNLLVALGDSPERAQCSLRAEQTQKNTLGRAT

`N[C@@H](CCC(=O)O)C(=O)O` [Glu]: the “concentration influencing DNA binding” value on JTY_0672 amounted to 20 mM. Same read-out and setting: then `O=C(O)c1cccnc1` [VB3], with 8 mM. JTY_3148 promoter PCR fragment (biotin): the Kd in series [1] turned out to be 2.2 µM.

Consider `N[C@@H](Cc1cnc[nH]1)C(=O)O` [His], for which the “concentration influencing DNA binding” value on JTY_0672 was found to be 40 mM. On the same count and under the same terms, the figure for `O=C1O[C@H]([C@@H](O)CO)C(O)=C1O` [VC] is 4 mM. The compound “ATTCATGGTCAGCGCCTTCCCCGGTGATCCGGATTATCTGCAACCGTCAG (double strand) [JTY_3148 promoter, 50 bp WT C13]” displayed a Kd in series [1] of 5.03 µM. As to `Cc1ncc(C[n+]2csc(CCO)c2C)c(N)n1` [VB1], at JTY_0672, the “concentration influencing DNA binding” value was 8 mM. Same read-out and setting: then `N[C@@H](CS)C(=O)O` [Cys], with 4 mM. In the case of `N[C@@H](CC(=O)O)C(=O)O` [Asp], the “concentration influencing DNA binding” value at JTY_0672 is listed as 20 mM.
